The assay has as its system BT20 Cell. Kind of assay: Cancer Cell Lysate Total L-Glutamate Assay. It is filed as cell-based. The note with it: Homo sapiens, BT-20, 2 h, total L-glutamate in cell lysate, BT20 cells, 2 hour incubation with test compound. The procedure: Cancer Cell Lysate Total L-Glutamate Assay
Cancer cell lines (BT20, HCT116, SKOV3, HCC70, SUM149, MDA-MB-231, etc.) were plated in 96 well plates and were used for the total L-glutamate assay when the monolayer was ca. 80% confluent. The media was changed and fresh media containing L-glutamine was added to the 96 well plates, just before incubation of the cells with test compound. The test compound was diluted in 100% DMSO using a two-fold or three-fold serial dilution. Small volumes of the dilutions of test compound were added to the 96 well plates so the final DMSO concentration was 0.5% v/v in the cell culture medium. The cells were incubated at 37° C., 5% CO2, and 95% air for 2 hours. Following the 2 hour incubation, the cells were washed with water 2 times. After the last water wash, 100 μL of 50 mM Tris-HCl pH 7.4 and 0.01% Tween-20 was added to each well and the plate was frozen at −80° C. The 96 well plate was frozen and thawed a total of 3 times and then sonicated for 5 min at 4° C. in a bath sonicator. Following sonication, the 96 well plate was centrifuged for 5 min at 1000 rpm and 10 μL of the supernatant was transferred to a 384 well assay plate.
Total L-glutamate (L-glutamic acid) in the cell lysis supernatant was detected using glutamate oxidase, horseradish peroxidase and Amplex Red reagent (10-acetyl-3,7-dihydroxy phenoxazine, Invitrogen # A22177). In this assay, L-glutamate was oxidized by glutamate oxidase to produce alpha-ketoglutarate (2-oxopentane dioic acid), NH3 and H202. The H2O2 (hydrogen peroxide) was used by horseradish peroxidase (HRP) to oxidize the Amplex Red Reagent to resorufin which is a fluorescent molecule. When resorufin is excited with light with a wavelength 530-560 nm, it emits light at approximately 585 nm. For detection of total L-glutamate in 10 μL of lysate, 15 μL of an enzyme mixture was added to each well of the 384 well assay plate. The enzyme mixture consisted of 50 mM Tris-HCl pH 7.4, 0.01% Tween-20, 50 μM Amplex Red reagent (final concentration), 0.04 U/mL L-glutamate oxidase (final concentration), and 0.125 U/mL HRP (final concentration). The 384 well assay plate was incubated at room temperature for 5 min and then the fluorescence intensity of each well was measured at 585 nm using a 530-560 nm excitation wavelength in a plate based fluorimeter such as an LJL Analyst or a Tecan Infinite plate reader. Standard curves were constructed for this assay using dilutions of a L-glutamate standard. IC50 were calculated by plotting the relative fluorescent units vs log of the inhibitor concentration and fitting the data to the four parameter logistic equation.
Reference: Chapman J. and Zhou M. (1999) Microplate-based fluorometric methods for the enzymatic determination of I-glutamate: application in measuring I-glutamate in food samples. Analytica Chim Acta 402:47-52.

In general, IC50 refers to the concentration needed to halve the response being measured. Turning to `CC(=O)Nc1nnc(C2CC[C@@H](Cc3nnc(NC(=O)c4ccccc4)s3)C2)s1` (single isomer, unassigned) [Example 13, N-[5-({(cis)-3-[5-(acetylamino)-1,3,4-thiadiazol-2-yl]cyclopentyl}methyl)-1,3,4-thiadiazol-2-yl]benzamide], 23.8 nM corresponded to half-maximal inhibition (IC50). `Cn1cnc(C(=O)Nc2nnc(C[C@H]3CC[C@@H](c4nnc(NC(=O)Cc5ccccn5)s4)C3)s2)c1` (racemic) [Example 150, (rac)-1-methyl-N-(5-{[(cis)-3-{5-[(pyridin-2-ylacetyl)amino]-1,3,4-thiadiazol-2-yl}cyclopentyl]methyl}-1,3,4-thiadiazol-2-yl)-1H-imidazole-4-carboxamide] showed an IC50 of 1.5 nM. The molecule `Cn1ccc(C(=O)Nc2nnc(C[C@H]3CC[C@@H](c4nnc(NC(=O)Cc5ccccn5)s4)C3)s2)n1` (racemic) [Example 137, (rac)-1-methyl-N-(5-{[(cis)-3-{5-[(pyridin-2-ylacetyl)amino]-1,3,4-thiadiazol-2-yl}cyclopentyl]methyl}-1,3,4-thiadiazol-2-yl)-1H-pyrazole-3-carboxamide] registered an IC50 of 4.4 nM. For `CC(=O)Nc1nnc(CC2CCC(c3nnc(NC(=O)Cc4ccccc4)s3)C2)s1` (racemic) [Example 43, (rac)-N-{5-[(cis)-3-{[5-(acetylamino)-1,3,4-thiadiazol-2-yl]methyl}cyclopentyl]-1,3,4-thiadiazol-2-yl}-2-phenylacetamide] the value was 94.4 nM. Under `O=C(Cc1ccccc1)Nc1nnc(C[C@@H]2CC[C@H](c3nnc(NC(=O)Cc4ccccc4)s3)C2)s1` (single isomer, unassigned) [Example 8] stands 1.4 nM; under `CC(=O)Nc1nnc([C@@H]2CC[C@H](Cc3nnc(NC(=O)Cc4ccn(C)n4)s3)C2)s1` (racemic) [Example 146, (rac)-N-[5-({(cis)-3-[5-(acetylamino)-1,3,4-thiadiazol-2-yl]cyclopentyl}methyl)-1,3,4-thiadiazol-2-yl]-2-(1-methyl-1H-pyrazol-3-yl)acetamide], 6.9 nM; under `Nc1nnc(CC2CC[C@@H](c3nnc(NC(=O)Cc4ccccc4)s3)C2)s1` (single isomer, unassigned) [Example 65, N-(5-{(cis)-3-[(5-amino-1,3,4-thiadiazol-2-yl)methyl]cyclopentyl}-1,3,4-thiadiazol-2-yl)-2-phenylacetamide], 1820 nM. As for `CC(=O)Nc1nnc([C@@H]2CC[C@H](Cc3nnc(NC(=O)Cc4cncnc4)s3)C2)s1` (single isomer, unassigned) [Example 50, N-[5-({(cis)-3-[5-(acetylamino)-1,3,4-thiadiazol-2-yl]cyclopentyl}methyl)-1,3,4-thiadiazol-2-yl]-2-(pyrimidin-5-yl)acetamide], half-maximal inhibition (IC50) required 8750 nM.

`O=C(Cc1ccccc1)Nc1ccc(CC2CCC(c3nnc(NC(=O)Cc4ccccn4)s3)C2)nn1` (racemic) [Example 1, 2-phenyl-N-(6-{[(cis)-3-{5-[(pyridine-2-ylacetyl)amino]-1,3,4-thiadiazol-2-yl}cyclopentyl]methyl}pyridazin-3-yl)acetamide] returned an IC50 of 0.7 nM. For `O=C(CCn1cccn1)Nc1nnc(C[C@H]2CC[C@@H](c3nnc(NC(=O)Cc4ccccn4)s3)C2)s1` (racemic) [Example 143, (rac)-3-(1H-pyrazol-1-yl)-N-(5-{[(cis)-3-{5-[(pyridin-2-ylacetyl)amino]-1,3,4-thiadiazol-2-yl}cyclopentyl]methyl}-1,3,4-thiadiazol-2-yl)propanamide] the value was 4.2 nM; for `C[C@H](C(=O)Nc1nnc(C[C@@H]2CC[C@H](c3nnc(NC(=O)[C@H](C)c4cccnc4)s3)C2)s1)c1cccnc1` (single isomer, unassigned) [Example 38, 2-(pyridin-3-yl)-N-(5-{[(cis)-3-(5-{[2-(pyridin-3-yl)propanoyl]amino}-1,3,4-thiadiazol-2-yl)cyclopentyl]methyl}-1,3,4-thiadiazol-2-yl)propanamide], 136 nM; for `O=C(Cc1ccccn1)Nc1nnc(C2CC3(C2)CC(c2nnc(NC(=O)Cc4ccccn4)s2)C3)s1` (racemic) [Example 61, N,N′-(spiro[3.3]heptane-2,6-diyldi-1,3,4-thiadiazole-5,2-diyl)bis[2-(pyridin-2-yl)acetamide]], 1.6 nM.

In the case of `CC(=O)Nc1nnc(C[C@@H]2CC[C@H](c3nnc(NC(=O)Cc4ccncn4)s3)C2)s1` (single isomer, unassigned) [Example 20], the midpoint of inhibition, the IC50, lay at 137 nM. For `CC(=O)Nc1nnc([C@H]2CC[C@@H](Cc3nnc(NC(=O)Cc4ccc(C)nc4)s3)C2)s1` (single isomer, unassigned) [Example 53, N-[5-({(cis)-3-[5-(acetylamino)-1,3,4-thiadiazol-2-yl]cyclopentyl}methyl)-1,3,4-thiadiazol-2-yl]-2-(6-methylpyridin-3-yl)acetamide] the value was 6.8 nM; for `COCCC(=O)Nc1nnc([C@@H]2CC[C@H](Cc3ccc(NC(=O)Cc4ccccn4)nn3)C2)s1` (single isomer, unassigned) [Example 121, 3-methoxy-N-{5-[(cis)-3-({6-[(pyridin-2-ylacetyl)amino]pyridazin-3-yl}methyl)cyclopentyl]-1,3,4-thiadiazol-2-yl}propanamide], 4 nM; for `Cc1ccc(CC(=O)Nc2nnc(C[C@H]3C[C@H](c4nnc(NC(=O)Cc5ccc(C)cn5)s4)C3)s2)nc1` (single isomer, unassigned) [Example 109, 2-(5-methylpyridin-2-yl)-N-(5-{[trans-3-(5-{[(5-methylpyridin-2-yl)acetyl]amino}-1,3,4-thiadiazol-2-yl)cyclobutyl]methyl}-1,3,4-thiadiazol-2-yl)acetamide], 1.3 nM. As for `CCC(=O)Nc1nnc(C2CC3(C2)CC(c2nnc(NC(=O)CC)s2)C3)s1` (stereo not drawn) [Example 134, N,N′-(spiro[3.3]heptane-2,6-diyldi-1,3,4-thiadiazole-5,2-diyl)dipropanamide], the concentration for half-maximal inhibition (IC50) is 1.3 nM. Under `CC(=O)Nc1nnc(C2CCC(Cc3nnc(NC(=O)c4ccccc4)s3)C2)s1` (racemic) [Example 11, N-[5-({(cis)-3-[5-(acetylamino)-1,3,4-thiadiazol-2-yl]cyclopentyl}methyl)-1,3,4-thiadiazol-2-yl]benzamide] stands 47.9 nM; under `CC(=O)Nc1nnc(C2CCC(Cc3nnc(NC(=O)Cc4cnccn4)s3)C2)s1` (racemic) [Example 47, (rac)-N-[5-({(cis)-3-[5-(acetylamino)-1,3,4-thiadiazol-2-yl]cyclopentyl}methyl)-1,3,4-thiadiazol-2-yl]-2-(pyrazin-2-yl)acetamide], 512 nM; under `C[C@H](C(=O)Nc1nnc([C@@H]2CC[C@H](Cc3nnc(NC(=O)[C@H](C)c4cccnc4)s3)C2)s1)c1cccnc1` (single isomer, unassigned) [Example 31, 2-(pyridin-3-yl)-N-(5-{[(cis)-3-(5-{[2-(pyridin-3-yl)propanoyl]amino}-1,3,4-thiadiazol-2-yl)cyclopentyl]methyl}-1,3,4-thiadiazol-2-yl)propanamide], 639 nM.

In turn, `O=C(Cc1ccccn1)Nc1ccc(C[C@H]2CC[C@@H](c3nnc(NC(=O)c4ccccn4)s3)C2)nn1` (single isomer, unassigned) [Example 116, N-{5-[(cis)-3-({6-[(pyridin-2-ylacetyl)amino]pyridazin-3-yl}methyl)cyclopentyl]-1,3,4-thiadiazol-2-yl}pyridine-2-carboxamide] showed an IC50 of 5.9 nM.

`CC(=O)Nc1nnc([C@@H]2CC[C@H](Cc3nnc(NC(=O)Cc4ccccn4)s3)C2)s1` (racemic) [Example 151, (rac)-N-[5-({(cis)-3-[5-(acetylamino)-1,3,4-thiadiazol-2-yl]cyclopentyl}methyl)-1,3,4-thiadiazol-2-yl]-2-(pyridin-2-yl)acetamide] showed a 50% inhibitory concentration (IC50) of 4.6 nM. For `O=C(Cc1ccccn1)Nc1ccc(C[C@@H]2CC[C@H](c3nnc(NC(=O)C[C@H]4CCCO4)s3)C2)nn1` (single isomer, unassigned) [Example 130] the value was 1.8 nM; for `Cn1ccc(Nc2nnc(C3CCC(Cc4nnc(NC(=O)Cc5ccccn5)s4)C3)s2)n1` (racemic) [Example 88, (rac)-N-(5-{[(cis)-3-{5-[(1-methyl-1H-pyrazol-3-yl)amino]-1,3,4-thiadiazol-2-yl}cyclopentyl]methyl}-1,3,4-thiadiazol-2-yl)-2-(pyridin-2-yl)acetamide], 13 nM.

The values are drawn from patent US10676471B2, “Cycloalkyl-linked diheterocycle derivatives” (Pfizer Inc., priority 2014, dated 2020).
